This passage reports GI50 and TGI results from PubChem BioAssay (NCI).

Test systems include MALME-3M melanoma; SNB-19 CNS; NCI-H522 lung; SF-268 CNS; MCF7 breast; U251 CNS; MDA-MB-231 breast; UACC-62 melanoma; M14 melanoma; SK-MEL-2 melanoma.
Holding throughout (assay): DTP human tumour cell line panel, 48 h

Molecules are shown by their SMILES. “And” between values parts separate entries of the source, which are not always exact repeats. Equal entries are not always repeated.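 Each compound was tested at five concentrations against cells in 96-well plates for 48 hours. Abbreviation: GI50, concentration required for 50% inhibition of growth. Definition used: TGI = concentration required for complete inhibition of growth.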

As for `CCCCNCCCNCCCNC(=O)c1csc(-c2csc(CCNC(=O)C(NC(=O)C(C)C(O)C(C)NC(=O)C(NC(=O)c3nc(C(CC(N)=O)NCC(N)C(N)=O)nc(N)c3C)C(OC3OC(CO)C(O)C(O)C3OC3OC(CO)C(O)C(OC(N)=O)C3O)c3cnc[nH]3)C(C)O)n2)n1` (stereo not drawn), the GI50 – broadly, the concentration that inhibits growth by half – is 0.697 µM in the assay with MALME-3M melanoma; 3.16 µM in the assay on SF-268 CNS; 0.807 µM in the assay with U251 CNS; 0.68 µM in the assay with UACC-62 melanoma; 34.3 µM in the assay with M14 melanoma. For the same molecule, the TGI (as a rule, the concentration at which net growth stops) is 16.9 µM in the assay on MALME-3M melanoma; 50 µM and > 65.7 µM in the assay on SNB-19 CNS; 7.96 µM and 10.1 µM with NCI-H522 lung; 50 µM and 15.2 µM with SF-268 CNS; 37.7 µM with MCF7 breast; 50 µM and 8.07 µM in the assay on U251 CNS. Besides, the TGI was 50 µM in the assay on MDA-MB-231 breast; 11.8 µM and 4.8 µM with UACC-62 melanoma; 50 µM and 15.9 µM in the assay on M14 melanoma; 17.3 µM with SK-MEL-2 melanoma.
Turning to `Nc1c(C(=O)Nc2ccccn2)sc2nc3c(cc12)C(=O)CCC3`, the GI50 was 13.1 µM with MALME-3M melanoma; 1.3 µM in the assay with SNB-19 CNS; 0.595 µM with NCI-H522 lung; 8.26 µM in the assay with SF-268 CNS; 0.435 µM with MCF7 breast; 1.34 µM with U251 CNS. In addition, the GI50 in the assay with MDA-MB-231 breast was 4.54 µM; with UACC-62 melanoma it was 0.621 µM; with M14 melanoma, 0.483 µM; in the assay with SK-MEL-2 melanoma, 0.443 µM. Moreover, the TGI in the assay with MALME-3M melanoma, with SNB-19 CNS, with NCI-H522 lung, in the assay on SF-268 CNS, in the assay on MCF7 breast and in the assay with U251 CNS was over 100 µM each time. Also, the TGI with MDA-MB-231 breast, in the assay on UACC-62 melanoma, in the assay with M14 melanoma and in the assay on SK-MEL-2 melanoma was over 100 µM in each case.
For `CN(Cc1cnc2nc(N)nc(N)c2n1)c1ccc(C(=O)N[C@@H](CCS(=O)(=O)O)C(=O)O)cc1`, the total growth inhibition concentration (TGI) in the assay with MALME-3M melanoma, in the assay on SNB-19 CNS, in the assay with NCI-H522 lung, in the assay with SF-268 CNS, in the assay with MCF7 breast and in the assay on U251 CNS was over 100 µM in each case. Besides, the TGI in the assay on MDA-MB-231 breast, with UACC-62 melanoma, in the assay with M14 melanoma and with SK-MEL-2 melanoma was over 100 µM each time.
Take `NC(=S)N/N=C/c1ncccc1O`: the GI50 in the assay with MALME-3M melanoma is 4.47 µM; in the assay with SNB-19 CNS, 3.61 µM; in the assay with NCI-H522 lung, 2.44 µM and 1.29 µM; in the assay with SF-268 CNS, 2.88 µM and 0.736 µM; in the assay on MCF7 breast, 2.55 µM; in the assay with U251 CNS, 3.35 µM. The GI50 with UACC-62 melanoma is 1.67 µM; with M14 melanoma it was 0.684 µM; in the assay with SK-MEL-2 melanoma, 21.3 µM. The total growth inhibition concentration (TGI) in the assay on MALME-3M melanoma is > 64.8 µM and 156 µM; in the assay on SNB-19 CNS, 295 µM; in the assay with NCI-H522 lung, > 42.9 µM and 87 µM; in the assay with SF-268 CNS it was 29.6 µM and 89.4 µM; in the assay on MCF7 breast, > 37.5 µM and 183 µM; in the assay with U251 CNS it was > 89.9 µM and 557 µM. Besides, the TGI in the assay on MDA-MB-231 breast was over 1000 µM; in the assay with UACC-62 melanoma, 11 µM and 9.55 µM; in the assay on M14 melanoma, 4.72 µM and 2.69 µM; in the assay on SK-MEL-2 melanoma, > 40 µM and 135 µM.
With `COc1ccc(/C=C\c2cc(OC)c(OC)c(OC)c2)cc1OCC(=O)O`, the concentration for total growth inhibition (TGI) was over 100 µM in the assay on MALME-3M melanoma; over 45.6 µM with SNB-19 CNS; 9.01 µM in the assay with NCI-H522 lung; over 100 µM in the assay on SF-268 CNS; over 100 µM in the assay with MCF7 breast; 39.6 µM with U251 CNS. Also, the TGI was over 92.7 µM with MDA-MB-231 breast, over 100 µM with UACC-62 melanoma, 62.9 µM with M14 melanoma and over 53.9 µM in the assay with SK-MEL-2 melanoma.
With `O=C(Nc1ncc(Cc2cccc(C(F)(F)F)c2)s1)c1ccc2c(c1)OCCO2`, the GI50 with MALME-3M melanoma is 0.569 µM; with SNB-19 CNS it was 0.506 µM; in the assay on NCI-H522 lung, 0.196 µM; with SF-268 CNS it was 1.13 µM; with MCF7 breast, 0.175 µM; with U251 CNS, 0.385 µM. Moreover, the GI50 in the assay with MDA-MB-231 breast is 0.445 µM; in the assay on UACC-62 melanoma, 0.372 µM; in the assay with M14 melanoma, 0.224 µM; in the assay with SK-MEL-2 melanoma, 0.943 µM. Besides, the concentration for total growth inhibition (TGI) in the assay on MALME-3M melanoma is over 60.9 µM; with SNB-19 CNS, over 68.4 µM; with SF-268 CNS it was over 100 µM; in the assay with MCF7 breast, over 100 µM; in the assay with U251 CNS, over 48.2 µM; in the assay on MDA-MB-231 breast it was 29.7 µM. In addition, the results for the concentration for total growth inhibition (TGI) in the assay on UACC-62 melanoma, in the assay on M14 melanoma and in the assay with SK-MEL-2 melanoma were over 100 µM, over 48.8 µM and over 48.6 µM, respectively.
Take `Cc1nc2sccn2c1-c1nc2sccn2c1/C=C1/C(=O)Nc2ccccc21`: the GI50 with MALME-3M melanoma is 3.26 µM; in the assay on SNB-19 CNS it was 3.52 µM; with NCI-H522 lung, 2.72 µM; in the assay with SF-268 CNS, 6.18 µM; with MCF7 breast, 1.5 µM; in the assay on U251 CNS, 4.54 µM. The GI50 in the assay with MDA-MB-231 breast is 4.85 µM; in the assay on UACC-62 melanoma it was 5.15 µM; in the assay on M14 melanoma, 3.99 µM; with SK-MEL-2 melanoma, 2.68 µM. For the same molecule, the TGI with MALME-3M melanoma is 70.5 µM; with SNB-19 CNS, 23.9 µM; with NCI-H522 lung, 11.1 µM; in the assay on SF-268 CNS it was 33.1 µM; with MCF7 breast, 6.51 µM; in the assay on U251 CNS, 64.8 µM. Also, the TGI in the assay on MDA-MB-231 breast was 23.9 µM; in the assay with UACC-62 melanoma it was over 100 µM; with M14 melanoma, over 100 µM; in the assay with SK-MEL-2 melanoma, 36.8 µM.
Turning to `COc1nc(=O)n(C2C=CC(=O)O2)cc1F` (stereo not drawn), the GI50 with MALME-3M melanoma is 1.8 µM; with SNB-19 CNS, 22.3 µM; with NCI-H522 lung it was 2.33 µM; with SF-268 CNS, 15.5 µM; with MCF7 breast, 2.3 µM; in the assay with U251 CNS, 14.6 µM. For the same molecule, the GI50 in the assay on MDA-MB-231 breast is 12.7 µM; with UACC-62 melanoma it was 5.53 µM; with M14 melanoma, 5.82 µM; with SK-MEL-2 melanoma it was 16.5 µM. The TGI with MALME-3M melanoma was determined as 6.95 µM; in the assay with SNB-19 CNS, 57 µM; with NCI-H522 lung it was 8.72 µM; with SF-268 CNS it was 37.3 µM; in the assay with MCF7 breast it was 10.9 µM; in the assay on U251 CNS, 29.1 µM. Besides, the total growth inhibition concentration (TGI) came to 25.9 µM with MDA-MB-231 breast, 18.7 µM in the assay on UACC-62 melanoma, 20.6 µM in the assay with M14 melanoma and 54.1 µM in the assay with SK-MEL-2 melanoma.
